Laboratory results reported in US20100292283A1, “NOVEL PHENYL-ACETAMIDE AND PHENYL-PROPIONAMIDE DERIVATIVES USEFUL AS POTASSIUM CHANNEL MODULATORS” (priority 2007, published 2010).

Target: T1, BK channels (Homo sapiens, UniProt Q12791)
T1 construct: expressed in transfected cells; host or cells: Xenopus laevis oocytes
Test: BK channel opening activity, two-electrode voltage clamp in Xenopus oocytes
Format: cell-based
Conditions: BK channels heterologously expressed in Xenopus oocytes, 0.01-31.6 μM compound
Protocol: In this example the BK channel opening activity of Compound 8 is determined using BK channels heterologously expressed in Xenopus iaevis oocytes.
The electrical current through the BK channel was measured using conventional two-electrode voltage clamp. BK currents were activated by repeating ramp protocols. In brief, the membrane potential was continuously changed from −120 mV to +120 mV within a 2 s period. The threshold for BK activation is approximately +30 mV under control conditions. Compounds were applied for 100 s during which the ramp protocol was repeated 10 times with 10 s intervals. In between the ramp protocols the membrane potential was clamped at −80 mV. The first three compound applications were control blanks where the current level is allowed to stabilize. […]
In order to evaluate the ability of the compounds to shift the BK activation curve towards lower membrane potentials, the BK current was transformed into conductance by using Ohm's law g=I/(Ememb−Erev), where g is the conductance, I is the current, Ememb is the membrane potential and Erev is the reversal potential. […] The control conductance level at a membrane potential of +100 mV was calculated, and the compound effect was evaluated as the potential difference, […], to the membrane potential at which the same conductance level was obtained in the presence of compound. […]

T1 sequence (Q12791 whole entry): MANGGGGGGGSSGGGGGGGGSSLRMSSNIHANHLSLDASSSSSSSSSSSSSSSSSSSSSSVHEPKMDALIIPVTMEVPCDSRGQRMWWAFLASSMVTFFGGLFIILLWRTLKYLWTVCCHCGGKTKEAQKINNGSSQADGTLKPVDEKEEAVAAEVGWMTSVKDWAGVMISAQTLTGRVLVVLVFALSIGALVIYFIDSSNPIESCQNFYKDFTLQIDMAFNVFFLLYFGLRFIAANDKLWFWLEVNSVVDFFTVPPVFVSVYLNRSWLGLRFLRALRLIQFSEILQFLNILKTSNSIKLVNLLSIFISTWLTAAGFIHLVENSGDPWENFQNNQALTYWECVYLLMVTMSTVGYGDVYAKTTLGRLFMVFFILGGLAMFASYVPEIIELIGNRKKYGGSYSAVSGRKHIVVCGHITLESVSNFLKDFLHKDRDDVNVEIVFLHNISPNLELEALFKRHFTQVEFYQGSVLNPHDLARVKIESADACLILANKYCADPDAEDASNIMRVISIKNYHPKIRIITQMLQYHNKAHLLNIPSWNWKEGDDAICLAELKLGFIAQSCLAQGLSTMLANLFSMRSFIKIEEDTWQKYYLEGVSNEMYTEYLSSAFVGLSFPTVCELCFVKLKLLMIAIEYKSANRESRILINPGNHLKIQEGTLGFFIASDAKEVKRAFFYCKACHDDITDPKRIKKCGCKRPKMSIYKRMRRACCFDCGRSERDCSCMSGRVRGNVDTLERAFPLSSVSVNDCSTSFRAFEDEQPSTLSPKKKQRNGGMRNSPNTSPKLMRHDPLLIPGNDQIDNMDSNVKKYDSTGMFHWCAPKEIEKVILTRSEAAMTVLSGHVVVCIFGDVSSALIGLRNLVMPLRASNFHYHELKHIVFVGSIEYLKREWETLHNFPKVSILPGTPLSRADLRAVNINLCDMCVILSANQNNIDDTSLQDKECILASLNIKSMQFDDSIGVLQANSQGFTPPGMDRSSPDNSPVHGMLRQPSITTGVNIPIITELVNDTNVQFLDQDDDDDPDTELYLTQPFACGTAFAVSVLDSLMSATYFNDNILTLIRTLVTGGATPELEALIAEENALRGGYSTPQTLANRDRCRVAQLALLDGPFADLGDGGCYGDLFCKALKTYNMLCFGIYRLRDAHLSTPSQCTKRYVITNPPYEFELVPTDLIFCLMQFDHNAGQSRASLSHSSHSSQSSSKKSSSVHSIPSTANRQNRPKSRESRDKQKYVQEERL

O=C(COc1cccc(Cl)c1)Nc1cc(Cl)ccc1-c1noc(=O)[nH]1 [Compound 8]
maximal left-shift for the BK-activation curve (ΔVmax) (fitted to sigmoidal logistic equation): -94 mV
EC50 (ramp -120 to +120 mV, ΔV at control conductance level of +100 mV, read-out: EC50 for the left-shift of the BKca-activation curve): 8.2 µM
